Measurements reported in US20090018111A1, “Novel Antimicrobial Medicament” (priority 2004, published 2009).
Where two headings read alike, the source gives them in different places.

What was measured:
Experiment in all cases: Sensitivity test (agar dilution)
[1] = system: S. epidermidis IAM1296; format: cell-based, Staphylococcus epidermidis
Outline: (§1)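 MICs were determined by agar dilution on Mueller Hinton agar containing twofold serial dilutions of single drugs or drug combinations. Overnight 37° C cultures were suspended in gelatin-buffered saline at about 10^6 CFU/ml, and about 5 μl was spot-inoculated. FIC index was calculated from MICs; ≤1 denotes enhancement.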

[2] = system: S. marcescens GN6473; format: cell-based, Serratia marcescens; conditions: Serratia marcescens
Outline: as §1

[3] = system: S. marcescens X 100; format: cell-based, Serratia marcescens
Outline: as §1

[4] = system: E. coli ML1410; format: cell-based, Escherichia coli; conditions: Escherichia coli
Outline: as §1

[5] = system: E. coli NIHJ JC-2; format: cell-based, Escherichia coli; conditions: Escherichia coli
Outline: as §1

[6] = system: P. vulgaris GN7919; format: cell-based, Proteus vulgaris; conditions: Proteus vulgaris
Outline: as §1

[7] = system: P. vurgalis OX-19; format: cell-based, Proteus vulgaris; conditions: Proteus vulgaris
Outline: as §1

C[C@H]1C=C(c2csc(SC3=C(C(=O)O)N4C(=O)[C@H]([C@@H](C)O)[C@H]4[C@H]3C)n2)CN1 [SM, (4R,5S,6S)-6-[(1R)-1-Hydroxyethyl]-4-methyl-3-({4-[(5S)-5-methyl-2,5-dihydro-1H-pyrrol-3-yl]-1,3-thiazol-2-yl}sulfanyl)-7-oxo-1-azabicyclo[3.2.0]hept-2-ene-2-carboxylic acid]
MIC ([1]; Staphylococcus epidermidis, IAM1296, Concomitant (MEPM:SM = 1:1), read-out: MIC): ≤ 0.016 µg/mL | MIC ([1]; Staphylococcus epidermidis, IAM1296, Concomitant (MEPM:SM = 1:2), read-out: MIC): ≤ 0.031 µg/mL | MIC ([1]; Staphylococcus epidermidis, IAM1296, Concomitant (MEPM:SM = 1:4), read-out: MIC): ≤ 0.063 µg/mL | MIC ([1]; Staphylococcus epidermidis, IAM1296, Concomitant (PAPM:SM = 1:1), S. epidermidis IAM1296, read-out: MIC concomitant): 0.016 µg/mL | MIC ([1]; Staphylococcus epidermidis, IAM1296, Concomitant (PIPC:SM = 1:1), S. epidermidis IAM1296, read-out: MIC concomitant): 0.016 µg/mL | MIC ([1]; Staphylococcus epidermidis, IAM1296, Concomitant drug (MEPM:SM = 2:1), read-out: MIC): 0.031 µg/mL | MIC ([1]; Staphylococcus epidermidis, IAM1296, alone, read-out: MIC): 0.016 µg/mL | MIC ([1]; Staphylococcus epidermidis, IAM1296, drug alone, S. epidermidis IAM1296, read-out: MIC alone): 0.031 µg/mL | MIC ([1]; alone): 0.031 µg/mL | MIC alone ([1]; drug alone, S. epidermidis IAM1296): 0.016 µg/mL | MIC ([2]; GN6473, Concomitant (AZT:SM = 1:1), S. marcescens GN6473, read-out: MIC concomitant): 0.25 µg/mL | MIC ([2]; GN6473, Concomitant (BIPM:SM = 1:1), S. marcescens GN6473, read-out: MIC concomitant): 0.125 µg/mL | MIC ([2]; GN6473, Concomitant (CAZ:SM = 1:1), S. marcescens GN6473, read-out: MIC concomitant): 0.5 µg/mL | MIC ([2]; GN6473, Concomitant (CPFX:SM = 1:1), S. marcescens GN6473, read-out: MIC concomitant): 1 µg/mL | MIC ([2]; GN6473, Concomitant (DRPM:SM = 1:1), S. marcescens GN6473, read-out: MIC concomitant): 0.063 µg/mL | MIC ([2]; GN6473, Concomitant (IPM:SM = 1:1), read-out: MIC): 0.25 µg/mL | MIC ([2]; GN6473, Concomitant (MEPM:SM = 1:1), read-out: MIC): 0.031 µg/mL | MIC ([2]; GN6473, Concomitant (MEPM:SM = 1:2), read-out: MIC): 0.063 µg/mL | MIC ([2]; GN6473, Concomitant (MEPM:SM = 1:4), read-out: MIC): 0.125 µg/mL | MIC ([2]; GN6473, Concomitant (PAPM:SM = 1:1), S. marcescens GN6473, read-out: MIC concomitant): 0.25 µg/mL | MIC ([2]; GN6473, Concomitant (PIPC:SM = 1:1), S. marcescens GN6473, read-out: MIC concomitant): 4 µg/mL | MIC ([2]; GN6473, Concomitant drug (MEPM:SM = 2:1), read-out: MIC): 0.016 µg/mL | MIC ([2]; GN6473, alone, read-out: MIC): 4 µg/mL | MIC ([2]; GN6473, drug alone, S. marcescens GN6473, read-out: MIC alone): 4 µg/mL | MIC ([3]; Serratia marcescens, X100, Concomitant (AZT:SM = 1:1), S. marcescens X 100, read-out: MIC concomitant): 0.031 µg/mL | MIC ([3]; Serratia marcescens, X100, Concomitant (BIPM:SM = 1:1), S. marcescens X 100, read-out: MIC concomitant): 0.063 µg/mL | MIC ([3]; Serratia marcescens, X100, Concomitant (CAZ:SM = 1:1), S. marcescens X 100, read-out: MIC concomitant): 0.125 µg/mL | MIC ([3]; Serratia marcescens, X100, Concomitant (CPFX:SM = 1:1), S. marcescens X 100, read-out: MIC concomitant): 0.063 µg/mL | MIC ([3]; Serratia marcescens, X100, Concomitant (DRPM:SM = 1:1), S. marcescens X 100, read-out: MIC concomitant): 0.031 µg/mL | MIC ([3]; Serratia marcescens, X100, Concomitant (IPM:SM = 1:1), read-out: MIC): 0.125 µg/mL | MIC ([3]; Serratia marcescens, X100, Concomitant (MEPM:SM = 1:1), read-out: MIC): ≤ 0.016 µg/mL | MIC ([3]; Serratia marcescens, X100, Concomitant (MEPM:SM = 1:2), read-out: MIC): ≤ 0.031 µg/mL | MIC ([3]; Serratia marcescens, X100, Concomitant (MEPM:SM = 1:4), read-out: MIC): ≤ 0.063 µg/mL | MIC ([3]; Serratia marcescens, X100, Concomitant (PAPM:SM = 1:1), S. marcescens X 100, read-out: MIC concomitant): 0.125 µg/mL | MIC ([3]; Serratia marcescens, X100, Concomitant (PIPC:SM = 1:1), S. marcescens X 100, read-out: MIC concomitant): 0.25 µg/mL | MIC ([3]; Serratia marcescens, X100, Concomitant drug (MEPM:SM = 2:1), read-out: MIC): 0.016 µg/mL | MIC ([3]; Serratia marcescens, X100, alone, read-out: MIC): 0.5 µg/mL | MIC ([3]; Serratia marcescens, X100, drug alone, S. marcescens X 100, read-out: MIC alone): 1 µg/mL | MIC ([3]; alone): 1 µg/mL | MIC ([4]; ML1410, Concomitant (AZT:SM = 1:1), E. coli ML1410, read-out: MIC concomitant): 0.063 µg/mL | MIC ([4]; ML1410, Concomitant (BIPM:SM = 1:1), E. coli ML1410, read-out: MIC concomitant): 0.063 µg/mL | MIC ([4]; ML1410, Concomitant (CAZ:SM = 1:1), E. coli ML1410, read-out: MIC concomitant): 0.063 µg/mL | MIC ([4]; ML1410, Concomitant (CPFX:SM = 1:1), E. coli ML1410, read-out: MIC concomitant): 0.125 µg/mL | MIC ([4]; ML1410, Concomitant (DRPM:SM = 1:1), E. coli ML1410, read-out: MIC concomitant): 0.031 µg/mL | MIC ([4]; ML1410, Concomitant (IPM:SM = 1:1), read-out: MIC): 0.125 µg/mL | MIC ([4]; ML1410, Concomitant (MEPM:SM = 1:1), read-out: MIC): ≤ 0.016 µg/mL | MIC ([4]; ML1410, Concomitant (MEPM:SM = 1:2), read-out: MIC): ≤ 0.031 µg/mL | MIC ([4]; ML1410, Concomitant (MEPM:SM = 1:4), read-out: MIC): ≤ 0.063 µg/mL | MIC ([4]; ML1410, Concomitant (PAPM:SM = 1:1), E. coli ML1410, read-out: MIC concomitant): 0.125 µg/mL | MIC ([4]; ML1410, Concomitant (PIPC:SM = 1:1), E. coli ML1410, read-out: MIC concomitant): 0.125 µg/mL | MIC ([4]; ML1410, Concomitant drug (MEPM:SM = 2:1), read-out: MIC): ≤ 0.008 µg/mL | MIC ([4]; ML1410, alone, read-out: MIC): 0.25 µg/mL | MIC ([4]; ML1410, drug alone, E. coli ML1410, read-out: MIC alone): 0.25 µg/mL | MIC ([5]; NIHJJC2, Concomitant (AZT:SM = 1:1), E. coli NIHJ JC-2, read-out: MIC concomitant): 0.063 µg/mL | MIC ([5]; NIHJJC2, Concomitant (BIPM:SM = 1:1), E. coli NIHJ JC-2, read-out: MIC concomitant): 0.031 µg/mL | MIC ([5]; NIHJJC2, Concomitant (CAZ:SM = 1:1), E. coli NIHJ JC-2, read-out: MIC concomitant): 0.063 µg/mL | MIC ([5]; NIHJJC2, Concomitant (CPFX:SM = 1:1), E. coli NIHJ JC-2, read-out: MIC concomitant): ≤ 0.002 µg/mL | MIC ([5]; NIHJJC2, Concomitant (DRPM:SM = 1:1), E. coli NIHJ JC-2, read-out: MIC concomitant): 0.016 µg/mL | MIC ([5]; NIHJJC2, Concomitant (IPM:SM = 1:1), read-out: MIC): 0.063 µg/mL | MIC ([5]; NIHJJC2, Concomitant (MEPM:SM = 1:1), read-out: MIC): ≤ 0.016 µg/mL | MIC ([5]; NIHJJC2, Concomitant (MEPM:SM = 1:2), read-out: MIC): ≤ 0.031 µg/mL | MIC ([5]; NIHJJC2, Concomitant (MEPM:SM = 1:4), read-out: MIC): ≤ 0.063 µg/mL | MIC ([5]; NIHJJC2, Concomitant (PAPM:SM = 1:1), E. coli NIHJ JC-2, read-out: MIC concomitant): 0.063 µg/mL | MIC ([5]; NIHJJC2, Concomitant (PIPC:SM = 1:1), E. coli NIHJ JC-2, read-out: MIC concomitant): 0.063 µg/mL | MIC ([5]; NIHJJC2, Concomitant drug (MEPM:SM = 2:1), read-out: MIC): ≤ 0.008 µg/mL | MIC ([5]; NIHJJC2, alone, read-out: MIC): 0.125 µg/mL | MIC ([5]; NIHJJC2, drug alone, E. coli NIHJ JC-2, read-out: MIC alone): 0.125 µg/mL | MIC ([6]; GN7919, Concomitant (AZT:SM = 1:1), P. vulgaris GN7919, read-out: MIC concomitant): 0.25 µg/mL | MIC ([6]; GN7919, Concomitant (BIPM:SM = 1:1), P. vulgaris GN7919, read-out: MIC concomitant): 0.25 µg/mL | MIC ([6]; GN7919, Concomitant (CAZ:SM = 1:1), P. vulgaris GN7919, read-out: MIC concomitant): 0.5 µg/mL | MIC ([6]; GN7919, Concomitant (CPFX:SM = 1:1), P. vulgaris GN7919, read-out: MIC concomitant): 0.016 µg/mL | MIC ([6]; GN7919, Concomitant (DRPM:SM = 1:1), P. vulgaris GN7919, read-out: MIC concomitant): 0.063 µg/mL | MIC ([6]; GN7919, Concomitant (IPM:SM = 1:1), read-out: MIC): 0.5 µg/mL | MIC ([6]; GN7919, Concomitant (MEPM:SM = 1:1), read-out: MIC): 0.031 µg/mL | MIC ([6]; GN7919, Concomitant (MEPM:SM = 1:2), read-out: MIC): 0.063 µg/mL | MIC ([6]; GN7919, Concomitant (MEPM:SM = 1:4), read-out: MIC): 0.125 µg/mL | MIC ([6]; GN7919, Concomitant (PAPM:SM = 1:1), P. vulgaris GN7919, read-out: MIC concomitant): 0.5 µg/mL | MIC ([6]; GN7919, Concomitant (PIPC:SM = 1:1), P. vulgaris GN7919, read-out: MIC concomitant): 0.5 µg/mL | MIC ([6]; GN7919, Concomitant drug (MEPM:SM = 2:1), read-out: MIC): 0.016 µg/mL | MIC ([6]; GN7919, alone, read-out: MIC): 1 µg/mL | MIC ([6]; GN7919, drug alone, P. vulgaris GN7919, read-out: MIC alone): 1 µg/mL | MIC ([7]; OX19, Concomitant (IPM:SM = 1:1)): 0.063 µg/mL | MIC ([7]; OX19, Concomitant (MEPM:SM = 1:1)): ≤ 0.016 µg/mL | MIC ([7]; OX19, Concomitant (MEPM:SM = 1:2)): ≤ 0.031 µg/mL | MIC ([7]; OX19, Concomitant (MEPM:SM = 1:4)): ≤ 0.063 µg/mL | MIC ([7]; OX19, Concomitant drug (MEPM:SM = 2:1)): 0.016 µg/mL | MIC ([7]; OX19, alone): 0.063 µg/mL | MIC ([7]; OX19, read-out: MIC concomitant, Concomitant (AZT:SM = 1:1), P. vurgalis OX-19): 0.004 µg/mL | MIC ([7]; OX19, read-out: MIC concomitant, Concomitant (BIPM:SM = 1:1), P. vurgalis OX-19): 0.031 µg/mL | MIC ([7]; OX19, read-out: MIC concomitant, Concomitant (CAZ:SM = 1:1), P. vurgalis OX-19): 0.008 µg/mL | MIC ([7]; OX19, read-out: MIC concomitant, Concomitant (CPFX:SM = 1:1), P. vurgalis OX-19): 0.008 µg/mL | MIC ([7]; OX19, read-out: MIC concomitant, Concomitant (DRPM:SM = 1:1), P. vurgalis OX-19): 0.031 µg/mL | MIC ([7]; OX19, read-out: MIC concomitant, Concomitant (PAPM:SM = 1:1), P. vurgalis OX-19): 0.063 µg/mL | MIC ([7]; OX19, read-out: MIC concomitant, Concomitant (PIPC:SM = 1:1), P. vurgalis OX-19): ≤ 0.002 µg/mL
